For this test, the system named is MDA-MB-468 breast. The test can be described thus: NCI anticancer screen, dose series, 48 h.

Values joined by “and” are separate entries in the source; they are usually repeats but may differ in a detail not shown here. Equal entries are not always repeated.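 Following 48 hours of exposure in 96-well plates, responses at five concentrations were used to interpolate endpoints linearly. GI50 marks 50% less growth. TGI: concentration producing complete growth inhibition.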

In the case of `O=C1C(=O)c2cc([N+](=O)[O-])ccc2-c2ccccc21`, the GI50 is 1.64 µM and the TGI came to 3.19 µM.

`O=C1C=C(Nc2ccccc2)c2ncccc2C1=O`: the GI50 is 1.57 µM and the TGI turned out to be 3.16 µM.

Turning to `CCOC(=O)[C@H](CSSc1ncnc2cc[nH]c12)NC(=O)[C@@H](C)c1ccc2cc(OC)ccc2c1`, the GI50 was 0.179 µM and the TGI came out at 91.7 µM.

Consider `CC(C)(Cl)CCC1=C(Cl)C(=O)c2ccccc2C1=O`, for which the GI50 is 1.5 µM and the TGI is 3.49 µM.

Consider `CN(C)CC/C=C1\c2ccccc2Sc2ccc(Cl)cc21`, for which the GI50 was 1.39 µM and the TGI was found to be 3.02 µM.

As for `O=c1oc2ccc(Cl)cc2c(=O)n1-c1ccc(Cl)cc1F`, the GI50 is 0.382 µM and the TGI was 1.87 µM.

As to `O=c1ncc(-c2ccc(C(F)(F)F)cc2)c(NC2CCCCCC2)[nH]1`, the GI50 was 21 µM and the TGI worked out at 51.4 µM.

With `COc1cccc(-c2nn(-c3ccccc3)cc2-c2ccnc(NCCNS(=O)(=O)c3ccc(C(F)(F)F)cc3)c2)c1`, the GI50 was 3.31 µM and the TGI stood at 15.1 µM.

In the case of `C[C@H](c1ccc(Cl)cc1N)N1C(=O)c2cc(I)ccc2N(CCCN2CCN(C)CC2)C(=O)[C@@H]1c1ccc(Cl)cc1`, the GI50 was 1.57 µM and the TGI came out at 3.14 µM.

As for `CN1CCN(C(=O)c2ccc(NC(=O)Nc3ccc(N(C)c4ccnc(Nc5ccc(CS(C)(=O)=O)cc5)n4)cc3)cc2)CC1`, the GI50 is 4.72 µM and the TGI is more than 25 µM.

As for `Nc1ncc(-c2cnn(C3CCNCC3)c2)cc1-c1nc2ccccc2o1`, the GI50 was 0.367 µM and the TGI worked out at 2.33 µM.

For the compound `COc1ccc(OC)c(/C=C/c2nnc(Nc3ccc(Cl)cc3)o2)c1`, the GI50 is 16.4 µM and the TGI is more than 100 µM.

Consider `O=S(=O)(NCCNc1cc(-c2cn(-c3ccccc3)nc2-c2cccc(O)c2)ccn1)c1ccc(C(F)(F)F)cc1`, for which the GI50 was 2.05 µM and the TGI is 5.02 µM.

On to `CNC(=O)c1ccc(Nc2ncc(C(F)(F)F)c(NCc3nccnc3N(C)S(C)(=O)=O)n2)cc1`, for which the GI50 is 1.59 µM and 2.06 µM and 1.98 µM; the TGI was 4.99 µM and 5.01 µM and 5.29 µM.

Take `C/C(=C\c1ccn(-c2ccc(N)c(C(F)(F)F)c2)n1)[C@@H]1C[C@@H]2O[C@]2(C)CCC[C@H](C)[C@H](O)[C@@H](C)C(=O)C(C)(C)[C@@H](O)CC(=O)O1`: the GI50 is 0.0106 µM and the TGI was found to be 14.2 µM.

As to `Nc1nc(N)c2nc(CNc3ccc(C(=O)CC(CCC(=O)O)C(=O)O)cc3)cnc2n1` (stereo unspecified), the GI50 was 0.208 µM and the TGI is 2.34 µM.

`CCN(Cc1ccc(F)cc1)c1ccc(CO)c(Cl)c1`: the GI50 is 0.0147 µM and the TGI came out at 0.0332 µM.

Take `CC(C)(C)c1cc(NC(=O)Nc2ccc(-c3cn4c5c(sc4n3)CCc3cn(CCCN4CCCCC4)cc3-5)cc2)no1`: the GI50 is 1.84 µM and the TGI turned out to be 3.72 µM.

Turning to `COc1cc2c(c(OC)c1OC)-c1ccc(OC)c(=O)cc1[C@@H](NC(=O)CCl)CC2`, the GI50 was less than 0.01 µM and the TGI is less than 0.01 µM.

`COc1ccc(-c2coc3ncnc(N)c23)cc1`: the GI50 is more than 25 µM and the TGI is more than 25 µM.

Take `O=C1C2CC3C(CC2C(=O)[N]1[Sn]([c]1ccccc1)([c]1ccccc1)[c]1ccccc1)C1(Cl)C(Cl)=C(Cl)C3(Cl)C1(Cl)Cl` (stereo unspecified): the GI50 was 0.12 µM and the TGI came out at 0.28 µM.

With `COc1cc(N2CCC(N3CCN(C)CC3)CC2)ccc1Nc1ncc(Cl)c(Nc2ccccc2P(C)(C)=O)n1`, the GI50 was 1.68 µM and the TGI is 5.29 µM.

Consider `COc1ccc(C(=O)/C=C/c2cc3ccccc3[nH]c2=O)cc1`, for which the GI50 is 10.5 µM and the TGI came to 23.1 µM.

For the compound `CS(=O)(=O)CCNCc1ccc(-c2ccc3ncnc(Nc4ccc(OCc5ccccc5)c(C(F)(F)F)c4)c3c2)o1`, the GI50 is 1.86 µM and the TGI is 6.4 µM.

For the compound `Nc1ccccc1NC(=O)c1ccc(CSc2nc(N3CCOCC3)c3cccn3n2)cc1`, the GI50 is 1.72 µM and the TGI came to 6.47 µM.

Take `CCCCCCCCN(CCCCCCCC)C(=N)c1ccnc2ccccc12`: the GI50 is 0.342 µM and the TGI was determined as 1.27 µM.

Turning to `Cc1cc(NC(=O)c2ccc(NS(=O)(=O)CCO)cc2N2CCC3(CC2)CC3)nc(N2CCC(F)(F)CC2)n1`, the GI50 was 0.0694 µM and the TGI was found to be 2.93 µM.

On to `CCN1C(=O)N(CC)C2C1NN=c1s/c(=C3\C(=O)N(CCC(C)C)c4ccccc43)c(=O)n12` (stereo unspecified), for which the GI50 is 0.283 µM and the TGI is 0.72 µM.

`CS(=O)(=O)c1ccc(N/N=C/c2c(-c3ccc(S(C)(=O)=O)cc3)[nH]c3ccc(F)cc23)cc1`: the GI50 was 3.49 µM and the TGI was more than 50 µM.

In the case of `COc1ccc(NC(=O)[C@H](C)NC(=O)OC(C)(C)C)cc1C(=O)Nc1cccc(-c2cc(=O)c3c(OC)c(OC)c(OC)cc3o2)c1`, the GI50 was 2.25 µM and the TGI is 6.28 µM.

As for `COc1cc2[nH]c(C(=O)c3cc(OC)c(OC)c(OC)c3)c(N)c2cc1C#CCO`, the GI50 is 0.183 µM and the TGI was more than 100 µM.

Turning to `CCc1ccc(C2=C/C(=C/c3ccc(Cl)cc3)C(=O)N2CCc2ccc(S(N)(=O)=O)cc2)cc1`, the GI50 was 1.94 µM and the TGI is 5.25 µM.

As for `CCC1CCc2nc3sc(C(=O)Nc4ccccc4F)c(N)c3cc2C1` (stereo unspecified), the GI50 is 0.347 µM and the TGI was more than 100 µM.

As for `Cc1ccc(-c2csc(N(C(=O)N3CCN(c4cc5c(cc4F)c(=O)c(C(=O)O)cn5C4CC4)CC3)c3ccccc3)n2)cc1`, the GI50 was 0.366 µM and the TGI was more than 100 µM.

Consider `Brc1cccc(/C=N/Nc2nc(N/N=C/c3cccc(Br)c3)nc(N3CCOCC3)n2)c1`, for which the GI50 was 1.91 µM and the TGI amounted to 6.09 µM.

For `NC1=NC(=O)N2CC12` (stereo unspecified), the GI50 was 76.8 µM and the TGI stood at 294 µM.

Regarding `CCCCCCCCCCCCCOC(=O)c1c(C)[nH]c(/C=C2\N=C(c3ccc[nH]3)C=C2OC)c1C`, the GI50 was 0.385 µM and the TGI came to 44.1 µM.

Consider `COc1ccc(C(=S)c2cc(OC)c(OC)c(OC)c2)cc1OC(=O)CCl`, for which the GI50 was 0.0964 µM.

In the case of `COc1cc2c(c(OC)c1OC)-c1ccc([O-])c(=O)cc1[C@@H](NC(C)=O)CC2.COc1cc2c(c(OC)c1OC)-c1ccc([O-])c(=O)cc1[C@@H](NC(C)=O)CC2.[Cu+2]`, the GI50 is 4.7 µM and the TGI is 43.2 µM.

Turning to `C#C[C@@]1(O)[C@@H](CO)O[C@@H](n2cc(Cl)c3c(N)ncnc32)[C@@H]1O`, the GI50 is 0.18 µM and the TGI was 0.451 µM.

As to `CCCCCCN(CCCCCC)C(=N)c1ccnc2ccccc12`, the GI50 was 3.13 µM and the TGI is 11.1 µM.
